Reference: patent US10647680B2, “Urea compound, preparation method therefor and medical use thereof” (Ancureall Pharmaceutical (Shanghai) Co., Ltd., priority 2016, dated 2020)

How the values were obtained:
[1] = test system: K562 (FLT3 negative expression, positive expression of BCR-ABL fusion protein); test: In vitro growth inhibition (GI50), K562; format: cell-based; conditions: Homo sapiens, Cell lines of leukemia, read-out: GI 50 K562 BCR-ABL
[2] = test system: NCI-H1781 (HER2/ErbB2 Ins G776V,C mutant type); test: In vitro growth inhibition (GI50), NCI-H1781; format: cell-based; conditions: Homo sapiens
Text: Tumor cell line is an effective cell model for studying the inhibition of tumor cell growth or proliferation in vitro. In the present invention, a representative tumor cell line was selected to determine the cell growth inhibition activity of the present compound. All cell lines used were from ATCC, DSMZ, and the Cell Bank of the Chinese Academy of Sciences. Cell culture conditions and methods were in accordance with the requirements of each cell line. Cells were subcultured in vitro for no more than 3 passages each time, and as required, single-clone purification and identification of cell lines could be carried out.
The cell culture media used were RPMI1640 (Gibco), MEM (Gibco), McCOY'S5A (Gibco), and IMDM (Gibco). The complete medium was prepared by supplement with 5˜20% fetal calf serum (Gibco), 1% double-antibiotics (10000 units/mL penicillin and 10000 units/mL), 2 mM glutamine or 1 mM sodium pyruvate, respectively.
Human gastric cancer cell line NCI-N87 (HER2/ErbB2 amp, ATCC), human breast cancer cell line HCC1954 (HER2/ErbB2 amp, ATCC) and ZR-75-30 (HER2/ErbB2 amp, ATCC), human adenocarcinoma cell line AU565 (HER2/ErbB2 amp, ATCC), human lung squamous cell carcinoma cell line NCI-H2170 (HER2/ErbB2 amp, ATCC), human bronchioalveolar adenocarcinoma cell line NCI-H1781 (HER2/ErbB2 Ins G776V,C mutant type, ATCC) were cultured with a 1×RPMI1640 complete medium (10% FBS), respectively. Human lung adenocarcinoma cell line Calu-3 (HER2/ErbB2 amp, ATCC) was cultured with 1×MEM, 10% FBS, 1% double antibody, 1% NEAA (Gibco), 2 mM glutamine and 1 mM sodium pyruvate. The human breast cancer cell line SK-BR-3 (HER2/ErbB2 amp, ATCC) was cultured with a McCOY'S5A complete medium (10% FBS).
Adherent cells were digested with 0.25% pancreatin-EDTA (Gibco). The suspension cells were collected by centrifugation. The supernatant was discarded and the cell pellet was resuspended and counted. Different cell concentrations (5˜10×10^4 cells/mL) were prepared according to the growth cycle of each cell line and then seeded on a 96-well plate (Corning), 100 μL/well. The cells were incubated overnight at 37° C., 5% CO2. The compounds were added to the cells on the second day with 2 wells in parallel. The final concentration of organic solvent shall not exceed 1%. The cells were continually incubated for 3 to 5 days, and then subjected to MTT assay.
The compound of the present invention and the control compound were dissolved in DMSO (Sigma) respectively, with the purity of more than 98%. The compound was stored in a concentration of 10 mM at −20° C. and diluted to 2- or 10-fold series prior to use.
Dojindo CCK8 reagent kit was used as MTT assay. THERMO […] FC meter was used as microplate reader.
For adherent cells, culture medium was removed and immediately replaced with the fresh prepared medium which contains 10% CCK8 reagent (100 μL/well). For the suspension cells, CCK8 was directly added to 10% of the final concentration. The cells were continually incubated for 1˜4 h. When a dark yellow color could be observed in the solvent control wells, the absorbance value at OD450 nm was measured and the cell growth rate was calculated according to the following formula: Cell Growth Rate (%)=100*(T−T0)/(C−T0) T=optical density of drug treatment cell well—optical density of blank control well; T0=optical density of cell well before drug treatment—optical density of blank control well; C=optical density of cell well of solvent control group—optical density of blank control well. The concentration value of 50% inhibition of cell growth (GI50) was calculated according to the drug concentration and cell growth rate curve. The experiment was independently repeated 1˜3 times, and subject to biological statistical analysis. 4. Experimental Results
Tumor cell growth inhibition test was performed by selecting representative compounds (compounds 4, 11, 12, 16, 27, 68, 71, 77, 79, 89 and 116 of the present invention). […]

| SMILES | GI50 [1] [nM] | GI50 [2] [nM] |
| --- | --- | --- |
| CC(C)(C)c1cc(NC(=O)Nc2ccc(-n3cnc4cc(OCCO)ccc43)cc2)no1 [Compound 11, 1-(5-tert-butyl-isoxazol-3-yl)-3-{4-[5-(2-hydroxy-ethoxyl)-benzimidazol-1-yl]-phenyl]-urea] | > 1000 | > 2500 |
| COc1ccc2c(c1)ncn2-c1ccc(NC(=O)Nc2cc(C(C)(C)C)n[nH]2)cc1 [Compound 71, 1-(5-tert-butyl-2H-pyrazol-3-yl)-3-[4-(5-methoxyl-benzimidazol-1-yl)-phenyl]-urea] | > 1000 | > 2500 |
| CC(C)(C)c1cc(NC(=O)Nc2ccc(-n3cnc4cc(O)ccc43)cc2)no1 [Compound 4, 1-(5-tert-butyl-isoxazol-3-yl)-3-[4-(5-hydroxy-benzimidazol-1-yl)-phenyl]-urea] | 100 to 1000 | > 2500 |
| COCCOc1ccc2c(c1)ncn2-c1ccc(NC(=O)Nc2cc(C(C)(C)C)n[nH]2)cc1 [Compound 77, 1-(5-tert-butyl-2H-pyrazol-3-yl)-3-{4-[5-(2-methoxyl-ethoxyl)-benzimidazol-1-yl]-phenyl}-urea] | > 1000 | > 2500 |
| CC(C)(C)c1cc(NC(=O)Nc2ccc(-n3cnc4cc(OCCO)ccc43)cc2)[nH]n1 [Compound 79, 1-(5-tert-butyl-2H-pyrazol-3-yl)-3-{4-[5-(2-hydroxy-ethoxyl)-benzimidazol-1-yl]-phenyl]urea] | > 1000 | > 2500 |
| CC(C)(C)c1cc(N)n(C(=O)Nc2ccc(-n3cnc4ccccc43)cc2)n1 [Compound 116, 5-amino-3-tert-butyl-pyrazol-1-carboxylic acid (4-benzimidazol-1-yl-phenyl)-amide] | > 1000 | > 2500 |
| CC(C)(C)c1cc(NC(=O)Nc2ccc(-n3cnc4ccc(OCCN5CCOCC5)cc43)cc2)no1 [Compound 27, 1-(5-tert-butyl-isoxazol-3-yl)-3-{4-[6-(2morpholin-4-yl-ethoxyl)-benzimidazol-1-yl]-phenyl}-urea] | > 1000 | > 2500 |
| CC(C)(C)c1cc(NC(=O)Nc2ccc(-n3cnc4ccccc43)cc2)[nH]n1 [Compound 68, 1-(4-benzimidazol-1-yl-phenyl)-3-(5-tert-butyl-2H-pyrazol-3-yl)-urea] | > 1000 | > 2500 |
| CC(C)(C)c1cc(NC(=O)Nc2ccc(-n3cnc4cc(OCCN5CCOCC5)ccc43)cc2)no1 [Compound 16, 1-(5-tert-butyl-isoxazol-3-yl)-3-{4-[5-(2-morpholin-4-yl-ethoxyl)-benzimidazol-1-yl]-phenyl}-urea] | > 1000 | > 2500 |
| CC(C)(C)c1cc(NC(=O)Nc2ccc(-n3cnc4cc(OCCN5CCOCC5)ccc43)cc2)[nH]n1 [Compound 89, 1-(5-tert-butyl-2H-pyrazol-3-yl)-3-{4-[5-(2-morpholin-4-yl-ethoxyl)-benzimidazol-1-yl]-phenyl}-urea] | > 1000 | > 2500 |
